Results from the NIST ThermoML archive (doi:10.1016/j.fluid.2016.08.002).

Experiment: xn = mol fraction of the nth substance listed
Conditions: Gas, Vibrating tube method

S [hydrogen sulfide] + C
Conditions | mass density [kg/m3]
273.16 K, 19608 kPa, x2 = 0.714 | 336.94
273.16 K, 22152 kPa, x2 = 0.714 | 354.18
273.16 K, 22483 kPa, x2 = 0.714 | 356.27
273.17 K, 12519 kPa, x2 = 0.8197 | 177.81
273.18 K, 22828 kPa, x2 = 0.714 | 358.14
273.19 K, 21199 kPa, x2 = 0.714 | 347.78
273.19 K, 24981 kPa, x2 = 0.714 | 368.95
273.2 K, 20623 kPa, x2 = 0.714 | 344.02
273.2 K, 23590 kPa, x2 = 0.714 | 362.19
273.21 K, 209 kPa, x2 = 0.8685 | 1.7
273.21 K, 648 kPa, x2 = 0.8685 | 5.39
273.21 K, 21506 kPa, x2 = 0.714 | 349.84
273.22 K, 26410 kPa, x2 = 0.714 | 375.25
273.23 K, 20100 kPa, x2 = 0.714 | 340.42
273.23 K, 25533 kPa, x2 = 0.714 | 371.48
273.24 K, 1167 kPa, x2 = 0.8685 | 10
273.24 K, 1761 kPa, x2 = 0.8685 | 15.44
273.24 K, 27020 kPa, x2 = 0.714 | 377.85
273.25 K, 2240 kPa, x2 = 0.8685 | 19.97
273.25 K, 3776 kPa, x2 = 0.8685 | 35.41
273.25 K, 11361 kPa, x2 = 0.8685 | 140.37
273.25 K, 24591 kPa, x2 = 0.714 | 367.01
273.25 K, 26031 kPa, x2 = 0.714 | 373.67
273.25 K, 30481 kPa, x2 = 0.8685 | 300.13
273.26 K, 2770 kPa, x2 = 0.8685 | 25.12
273.26 K, 4666 kPa, x2 = 0.8685 | 45.13
273.26 K, 5086 kPa, x2 = 0.8685 | 49.93
273.26 K, 11062 kPa, x2 = 0.8685 | 135.65
273.26 K, 11726 kPa, x2 = 0.8685 | 146.08
273.26 K, 12002 kPa, x2 = 0.8685 | 150.33
273.26 K, 12322 kPa, x2 = 0.8685 | 155.19
273.26 K, 12637 kPa, x2 = 0.8685 | 159.86
273.26 K, 13040 kPa, x2 = 0.8685 | 165.72
273.26 K, 27255 kPa, x2 = 0.8685 | 285.03
273.26 K, 28276 kPa, x2 = 0.8685 | 290.05
273.26 K, 29372 kPa, x2 = 0.8685 | 295.19
273.27 K, 3280 kPa, x2 = 0.8685 | 30.25
273.27 K, 4207 kPa, x2 = 0.8685 | 40.03
273.27 K, 4225 kPa, x2 = 0.8685 | 40.23
273.27 K, 9149 kPa, x2 = 0.8685 | 105.29
273.27 K, 9851 kPa, x2 = 0.8685 | 116.33
273.27 K, 13466 kPa, x2 = 0.8685 | 171.7
273.27 K, 13771 kPa, x2 = 0.8685 | 175.85
273.27 K, 24569 kPa, x2 = 0.8685 | 270.52
273.27 K, 25361 kPa, x2 = 0.8685 | 275.02
273.27 K, 26319 kPa, x2 = 0.8685 | 280.21
273.28 K, 5512 kPa, x2 = 0.8685 | 54.98
273.28 K, 5933 kPa, x2 = 0.8685 | 60.12
273.28 K, 8496 kPa, x2 = 0.8685 | 95.31
273.28 K, 9596 kPa, x2 = 0.8685 | 112.28
273.28 K, 10137 kPa, x2 = 0.8685 | 120.88
273.29 K, 8136 kPa, x2 = 0.8685 | 89.96
273.29 K, 8809 kPa, x2 = 0.8685 | 100.05
273.29 K, 10446 kPa, x2 = 0.8685 | 125.82
273.29 K, 10749 kPa, x2 = 0.8685 | 130.66
273.29 K, 23690 kPa, x2 = 0.8685 | 265.29
273.3 K, 6333 kPa, x2 = 0.8685 | 65.17
273.3 K, 14847 kPa, x2 = 0.8685 | 189.62
273.31 K, 6712 kPa, x2 = 0.8685 | 70.1
273.31 K, 7200 kPa, x2 = 0.8685 | 76.68
273.31 K, 7483 kPa, x2 = 0.8685 | 80.6
273.31 K, 7817 kPa, x2 = 0.8685 | 85.33
273.31 K, 15329 kPa, x2 = 0.8685 | 195.37
273.31 K, 22905 kPa, x2 = 0.8685 | 260.37
273.32 K, 15811 kPa, x2 = 0.8685 | 200.85
273.32 K, 16120 kPa, x2 = 0.8685 | 204.24
273.32 K, 16817 kPa, x2 = 0.8685 | 211.55
273.33 K, 17352 kPa, x2 = 0.8685 | 216.85
273.33 K, 21405 kPa, x2 = 0.8685 | 250.29
273.34 K, 17978 kPa, x2 = 0.8685 | 222.75
273.34 K, 18233 kPa, x2 = 0.8685 | 225.06
273.35 K, 18773 kPa, x2 = 0.8685 | 229.81
273.35 K, 19531 kPa, x2 = 0.8685 | 236.12
273.36 K, 20692 kPa, x2 = 0.8685 | 245.12
273.37 K, 20048 kPa, x2 = 0.8685 | 240.23
273.37 K, 24085 kPa, x2 = 0.714 | 364.7
293.18 K, 239 kPa, x2 = 0.8685 | 1.86
293.18 K, 469 kPa, x2 = 0.8685 | 3.71
293.18 K, 2890 kPa, x2 = 0.8685 | 25.81
293.18 K, 8263 kPa, x2 = 0.8685 | 79.99
293.18 K, 8722 kPa, x2 = 0.8685 | 85.68
293.18 K, 9972 kPa, x2 = 0.8685 | 100.39
293.18 K, 12003 kPa, x2 = 0.8685 | 124.94
293.18 K, 12415 kPa, x2 = 0.8685 | 130.08
293.18 K, 12830 kPa, x2 = 0.8685 | 135.13
293.18 K, 13726 kPa, x2 = 0.8685 | 145.96
293.19 K, 792 kPa, x2 = 0.8685 | 6.46
293.19 K, 1341 kPa, x2 = 0.8685 | 11.22
293.19 K, 2300 kPa, x2 = 0.8685 | 20.14
293.19 K, 3396 kPa, x2 = 0.8685 | 30.35
293.19 K, 3988 kPa, x2 = 0.8685 | 35.82
293.19 K, 4428 kPa, x2 = 0.8685 | 40.25
293.19 K, 6909 kPa, x2 = 0.8685 | 65.4
293.19 K, 7335 kPa, x2 = 0.8685 | 70.05
293.19 K, 7786 kPa, x2 = 0.8685 | 74.96
293.19 K, 9097 kPa, x2 = 0.8685 | 90.09
293.19 K, 9534 kPa, x2 = 0.8685 | 95.16
293.19 K, 10368 kPa, x2 = 0.8685 | 105.2
293.19 K, 10794 kPa, x2 = 0.8685 | 110.28
293.19 K, 11183 kPa, x2 = 0.8685 | 115.06
293.19 K, 11608 kPa, x2 = 0.8685 | 120.16
293.19 K, 13230 kPa, x2 = 0.8685 | 140.02
293.19 K, 16228 kPa, x2 = 0.8685 | 174.96
293.19 K, 16699 kPa, x2 = 0.8685 | 180.07
293.19 K, 17682 kPa, x2 = 0.8685 | 190.29
293.2 K, 1820 kPa, x2 = 0.8685 | 15.41
293.2 K, 4887 kPa, x2 = 0.8685 | 44.78
293.2 K, 5494 kPa, x2 = 0.8685 | 50.99
293.2 K, 5964 kPa, x2 = 0.8685 | 55.59
293.2 K, 6411 kPa, x2 = 0.8685 | 60.21
293.2 K, 14242 kPa, x2 = 0.8685 | 152.42
293.2 K, 14579 kPa, x2 = 0.8685 | 156.48
293.2 K, 14924 kPa, x2 = 0.8685 | 160.62
293.2 K, 15365 kPa, x2 = 0.8685 | 165.51
293.2 K, 15806 kPa, x2 = 0.8685 | 170.31
293.2 K, 17183 kPa, x2 = 0.8685 | 185.14
293.2 K, 18163 kPa, x2 = 0.8685 | 195.16
293.2 K, 20932 kPa, x2 = 0.8685 | 220.42
293.2 K, 21495 kPa, x2 = 0.8685 | 224.99
293.2 K, 27629 kPa, x2 = 0.8685 | 265.96
293.2 K, 28496 kPa, x2 = 0.8685 | 270.59
293.21 K, 1117 kPa, x2 = 0.8685 | 9.2
293.21 K, 23505 kPa, x2 = 0.8685 | 240.2
293.21 K, 25865 kPa, x2 = 0.8685 | 255.77
293.21 K, 26669 kPa, x2 = 0.8685 | 260.49
293.21 K, 29415 kPa, x2 = 0.8685 | 275.27
293.21 K, 29995 kPa, x2 = 0.8685 | 278.16
293.21 K, 30419 kPa, x2 = 0.8685 | 280.17
293.22 K, 20355 kPa, x2 = 0.8685 | 215.54
293.22 K, 24254 kPa, x2 = 0.8685 | 245.19
293.22 K, 25052 kPa, x2 = 0.8685 | 250.52
